Measurements: patent US12098154B2, “Inhibitors of cyclin-dependent kinases” (Dana-Farber Cancer Institute, Inc., priority 2015, dated 2024)

How the values were obtained:
Assay type in all cases: biochemical
CDK7/CycH = CDK7/CycH (Homo sapiens, UniProt P50613); assay: CDK7/CycH inhibition (Tables A1, A2)
CDK9/CycT = CDK9/CycT (Homo sapiens, UniProt P50750); assay: CDK9/CycT inhibition (Tables A1, A2)
CDK2/CycA = CDK2/CycA (Homo sapiens, UniProt P24941); assay: CDK2/CycA inhibition (Tables A1, A2)

Chain of CDK9/CycT (P50750 whole entry): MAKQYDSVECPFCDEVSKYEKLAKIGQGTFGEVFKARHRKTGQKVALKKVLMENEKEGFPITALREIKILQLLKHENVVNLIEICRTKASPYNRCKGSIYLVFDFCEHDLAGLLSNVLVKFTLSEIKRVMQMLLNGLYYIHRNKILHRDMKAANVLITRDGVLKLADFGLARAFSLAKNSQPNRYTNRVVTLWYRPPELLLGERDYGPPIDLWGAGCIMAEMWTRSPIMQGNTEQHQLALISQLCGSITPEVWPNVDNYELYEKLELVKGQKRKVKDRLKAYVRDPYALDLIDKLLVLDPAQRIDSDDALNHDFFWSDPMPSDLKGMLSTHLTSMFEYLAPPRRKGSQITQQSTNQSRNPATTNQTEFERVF
Chain of CDK9/CycT (O60563 whole entry partner): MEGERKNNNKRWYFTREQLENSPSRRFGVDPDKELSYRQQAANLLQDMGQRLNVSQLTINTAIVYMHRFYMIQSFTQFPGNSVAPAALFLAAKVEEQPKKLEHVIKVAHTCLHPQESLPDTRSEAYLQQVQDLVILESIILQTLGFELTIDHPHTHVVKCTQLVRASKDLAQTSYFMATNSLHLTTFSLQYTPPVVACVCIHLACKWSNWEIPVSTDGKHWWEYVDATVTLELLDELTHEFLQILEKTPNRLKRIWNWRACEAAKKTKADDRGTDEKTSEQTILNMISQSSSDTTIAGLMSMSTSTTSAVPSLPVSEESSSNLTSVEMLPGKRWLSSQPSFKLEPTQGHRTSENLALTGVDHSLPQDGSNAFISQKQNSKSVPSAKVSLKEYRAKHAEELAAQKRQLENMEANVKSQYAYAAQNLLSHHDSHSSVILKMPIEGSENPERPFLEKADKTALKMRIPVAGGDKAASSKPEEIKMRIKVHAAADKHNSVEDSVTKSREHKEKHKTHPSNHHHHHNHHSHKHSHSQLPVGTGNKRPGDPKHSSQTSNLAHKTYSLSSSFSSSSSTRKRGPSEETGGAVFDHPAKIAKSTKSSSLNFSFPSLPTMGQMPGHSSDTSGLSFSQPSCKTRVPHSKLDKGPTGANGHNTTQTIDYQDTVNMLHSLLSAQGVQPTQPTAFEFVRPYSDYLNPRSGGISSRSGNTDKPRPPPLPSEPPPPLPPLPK
Chain of CDK7/CycH (P50613 whole entry): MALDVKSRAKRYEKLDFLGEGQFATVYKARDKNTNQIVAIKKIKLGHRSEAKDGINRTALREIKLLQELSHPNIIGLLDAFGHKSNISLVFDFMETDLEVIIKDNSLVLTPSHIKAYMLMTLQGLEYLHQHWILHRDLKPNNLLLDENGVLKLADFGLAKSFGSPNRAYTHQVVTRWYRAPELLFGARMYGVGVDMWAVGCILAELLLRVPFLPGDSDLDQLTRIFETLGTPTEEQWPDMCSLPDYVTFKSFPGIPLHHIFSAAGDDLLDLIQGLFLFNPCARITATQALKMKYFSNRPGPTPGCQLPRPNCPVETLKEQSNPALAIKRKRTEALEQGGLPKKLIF
Chain of CDK7/CycH (P51946 whole entry partner): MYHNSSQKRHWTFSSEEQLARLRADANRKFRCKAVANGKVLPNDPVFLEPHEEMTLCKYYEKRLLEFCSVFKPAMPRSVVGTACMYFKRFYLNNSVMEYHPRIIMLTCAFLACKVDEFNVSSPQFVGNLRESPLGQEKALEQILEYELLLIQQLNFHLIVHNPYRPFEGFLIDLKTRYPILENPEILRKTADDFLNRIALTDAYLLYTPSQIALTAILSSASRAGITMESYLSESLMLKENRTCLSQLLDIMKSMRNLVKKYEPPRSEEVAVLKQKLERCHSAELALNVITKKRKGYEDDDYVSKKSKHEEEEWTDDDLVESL

IC50 (CDK7/CycH)	IC50 (CDK9/CycT)	IC50 (CDK2/CycA)	SMILES
254 nM	1360 nM	735 nM	C=CC(=O)Nc1cccc(Nc2nc(N[C@H]3CC[C@@H](N(C)C)CC3)nc3c2ncn3C(C)C)c1 [E-1(SB1-E-14), N-(3-(2-((1s,4s)-4-(Dimethylamino)cyclohexylamino)-9-isopropyl-9H-purin-6-ylamino)phenyl)acrylamide]
165 nM	–	27.6 nM	C=CC(=O)Nc1cccc(CNc2cc(N3CCCC[C@H]3CCO)nc3c(CC)cnn23)c1 [MFH-1-49-1, (S)—N-(3-(((3-ethyl-5-(2-(2-hydroxyethyl)piperidin-1-yl)pyrazolo[1,5-a]pyrimidin-7-yl)amino)methyl)phenyl)acrylamide]
345 nM	–	1530 nM	C=CC(=O)Nc1cccc(CNc2cc(N3CCCC[C@@H]3CCO)nc3c(CC)cnn23)c1 [MFH-1-56-1, (R)—N-(3-((3-ethyl-5-(2-(2-hydroxyethyl)piperidin-1-yl)pyrazolo[1,5-a]pyrimidin-7-ylamino)methyl)phenyl)acrylamide]
1210 nM	23.9 nM	932 nM	C=CC(=O)Nc1cccc(Nc2cc(N3CCCC[C@H]3CCO)nc3c(CC)cnn23)c1 [MFH-1-141-1, (S)—N-(3-(3-ethyl-5-(2-(2-hydroxyethyl)piperidin-1-yl)pyrazolo[1,5-a]pyrimidin-7-ylamino)phenyl)acrylamide]
2510 nM	859 nM	> 10000 nM	C=CC(=O)Nc1cccc(Nc2cc(N3CCCC[C@@H]3CCO)nc3c(CC)cnn23)c1 [MFH-1-143-1, (R)—N-(3-(3-ethyl-5-(2-(2-hydroxyethyl)piperidin-1-yl)pyrazolo[1,5-a]pyrimidin-7-ylamino)phenyl)acrylamide]
739 nM	24.7 nM	328 nM	C=CC(=O)NC1CCCC(Nc2cc(N3CCCC[C@H]3CCO)nc3c(CC)cnn23)C1 (stereo partly drawn) [MFH-1-167-1, N-(3-(3-ethyl-5-((S)-2-(2-hydroxyethyl)piperidin-1-yl)pyrazolo[1,5-a]pyrimidin-7-ylamino)cyclohexyl)acrylamide]
7250 nM	135 nM	3880 nM	C=CC(=O)N[C@H]1CC[C@@H](Nc2cc(N3CCCC[C@H]3CCO)nc3c(CC)cnn23)CC1 [MFH-1-169-1, N-((1R,4s)-4-((3-ethyl-5-((S)-2-(2-hydroxyethyl)piperidin-1-yl)pyrazolo[1,5-a]pyrimidin-7-yl)amino)cyclohexyl)acrylamide]
442 nM	48.2 nM	1080 nM	C=CC(=O)N[C@H]1CC[C@H](Nc2cc(N3CCCC[C@H]3CCO)nc3c(CC)cnn23)CC1 [MFH-1-175-1, N-((1S,4r)-4-((3-ethyl-5-((S)-2-(2-hydroxyethyl)piperidin-1-yl)pyrazolo[1,5-a]pyrimidin-7-yl)amino)cyclohexyl)acrylamide]
279 nM	23.5 nM	171 nM	C=CC(=O)Nc1ccc(Nc2cc(N3CCCC[C@H]3CCO)nc3c(CC)cnn23)cc1 [MFH-1-187-1, (S)—N-(4-((3-ethyl-5-(2-(2-hydroxyethyl)piperidin-1-yl)pyrazolo[1,5-a]pyrimidin-7-yl)amino)phenyl)acrylamide]
1100 nM	61.6 nM	53.6 nM	C=CC(=O)Nc1cccc(Nc2nc(N3CCCC[C@H]3CCO)nc3c(CC)cnn23)c1 [MFH-2-53-1, (S)—N-(3-(8-ethyl-2-(2-(2-hydroxyethyl)piperidin-1-yl)pyrazolo[1,5-a][1,3,5]triazin-4-ylamino)phenyl)acrylamide]
23.7 nM	103 nM	1020 nM	C=CC(=O)Nc1cccc(CNc2nc(N[C@H]3CC[C@H](N(C)C)CC3)nc3c(CC)cnn23)c1 [MFH-2-67-1, N-(3-(((2-(((1r,4r)-4-(dimethylamino)cyclohexyl)amino)-8-ethylpyrazolo[1,5-a][1,3,5]triazin-4-yl)amino)methyl)phenyl)acrylamide]
